Consider two compounds from BindingDB's records for doi:10.1016/j.bmcl.2008.08.095 (Sunesis Pharmaceuticals, 2008).

The experiment addresses Focal adhesion kinase 1 (Homo sapiens, UniProt Q05397).

Sequence of Focal adhesion kinase 1 (Q05397 whole entry): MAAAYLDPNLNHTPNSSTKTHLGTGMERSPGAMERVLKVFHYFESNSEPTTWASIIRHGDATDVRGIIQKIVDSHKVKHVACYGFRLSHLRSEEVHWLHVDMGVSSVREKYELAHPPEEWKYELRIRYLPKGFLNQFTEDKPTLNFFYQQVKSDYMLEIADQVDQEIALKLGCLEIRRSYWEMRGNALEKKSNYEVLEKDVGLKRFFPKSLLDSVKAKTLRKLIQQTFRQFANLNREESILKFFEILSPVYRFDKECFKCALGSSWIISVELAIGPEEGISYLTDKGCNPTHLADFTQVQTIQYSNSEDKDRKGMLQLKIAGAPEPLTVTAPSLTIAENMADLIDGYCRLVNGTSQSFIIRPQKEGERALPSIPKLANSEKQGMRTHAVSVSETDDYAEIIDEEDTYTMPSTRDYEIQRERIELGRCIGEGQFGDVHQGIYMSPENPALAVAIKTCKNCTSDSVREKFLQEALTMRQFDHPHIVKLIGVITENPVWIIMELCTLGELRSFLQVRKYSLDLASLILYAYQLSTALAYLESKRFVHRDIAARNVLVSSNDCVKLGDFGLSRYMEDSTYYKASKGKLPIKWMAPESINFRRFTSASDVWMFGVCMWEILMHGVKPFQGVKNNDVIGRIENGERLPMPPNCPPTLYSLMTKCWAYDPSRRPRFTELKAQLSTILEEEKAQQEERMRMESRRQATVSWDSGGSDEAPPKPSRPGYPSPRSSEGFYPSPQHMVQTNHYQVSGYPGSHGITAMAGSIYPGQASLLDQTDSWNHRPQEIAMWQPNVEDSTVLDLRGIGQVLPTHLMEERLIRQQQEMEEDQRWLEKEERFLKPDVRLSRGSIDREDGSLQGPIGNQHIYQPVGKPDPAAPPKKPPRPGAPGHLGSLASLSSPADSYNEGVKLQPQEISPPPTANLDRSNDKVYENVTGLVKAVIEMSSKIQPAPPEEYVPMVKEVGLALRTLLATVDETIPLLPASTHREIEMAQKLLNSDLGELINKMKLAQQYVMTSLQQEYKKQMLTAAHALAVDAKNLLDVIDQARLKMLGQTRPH

Compound `Cc1nn(-c2cc(Cl)cc(CCC(N)=O)c2)c2cc(N[C@@H](C)c3ccccc3)ncc12` [3-[3-chloro-5-(3-methyl-6-{[(1S)-1-phenylethyl]amino}-1H-pyrazolo[4,3-c]pyridin-1-yl)phenyl]propanamide] returned a 50% inhibitory concentration (IC50) of 7.46 µM.
With `CC(=O)Nc1ccccc1-c1cc(Cl)cc(-n2nc(C)c3cnc(N[C@@H](C)c4ccccc4)cc32)c1` [N-{2-[3-chloro-5-(3-methyl-6-{[(1S)-1-phenylethyl]amino}-1H-pyrazolo[4,3-c]pyridin-1-yl)phenyl]phenyl}acetamide], the IC50 amounted to 6.28 µM.

The IC50 is the concentration that inhibits the measured activity by half. Lower therefore signals inhibition by little substance.
